The record followed here is US10961232B2, “Substituted pyrazines as ATR kinase inhibitors” (Vertex Pharmaceuticals Incorporated, priority 2008, dated 2021).

pKi: −log10 of the molar value.

The target of the first assay is full-length ATR (Homo sapiens (Human), UniProt Q13535). Kind of assay: ATR inhibition assay (radioactive-phosphate incorporation). It is filed as biochemical.
Chain of full-length ATR (Q13535 whole entry): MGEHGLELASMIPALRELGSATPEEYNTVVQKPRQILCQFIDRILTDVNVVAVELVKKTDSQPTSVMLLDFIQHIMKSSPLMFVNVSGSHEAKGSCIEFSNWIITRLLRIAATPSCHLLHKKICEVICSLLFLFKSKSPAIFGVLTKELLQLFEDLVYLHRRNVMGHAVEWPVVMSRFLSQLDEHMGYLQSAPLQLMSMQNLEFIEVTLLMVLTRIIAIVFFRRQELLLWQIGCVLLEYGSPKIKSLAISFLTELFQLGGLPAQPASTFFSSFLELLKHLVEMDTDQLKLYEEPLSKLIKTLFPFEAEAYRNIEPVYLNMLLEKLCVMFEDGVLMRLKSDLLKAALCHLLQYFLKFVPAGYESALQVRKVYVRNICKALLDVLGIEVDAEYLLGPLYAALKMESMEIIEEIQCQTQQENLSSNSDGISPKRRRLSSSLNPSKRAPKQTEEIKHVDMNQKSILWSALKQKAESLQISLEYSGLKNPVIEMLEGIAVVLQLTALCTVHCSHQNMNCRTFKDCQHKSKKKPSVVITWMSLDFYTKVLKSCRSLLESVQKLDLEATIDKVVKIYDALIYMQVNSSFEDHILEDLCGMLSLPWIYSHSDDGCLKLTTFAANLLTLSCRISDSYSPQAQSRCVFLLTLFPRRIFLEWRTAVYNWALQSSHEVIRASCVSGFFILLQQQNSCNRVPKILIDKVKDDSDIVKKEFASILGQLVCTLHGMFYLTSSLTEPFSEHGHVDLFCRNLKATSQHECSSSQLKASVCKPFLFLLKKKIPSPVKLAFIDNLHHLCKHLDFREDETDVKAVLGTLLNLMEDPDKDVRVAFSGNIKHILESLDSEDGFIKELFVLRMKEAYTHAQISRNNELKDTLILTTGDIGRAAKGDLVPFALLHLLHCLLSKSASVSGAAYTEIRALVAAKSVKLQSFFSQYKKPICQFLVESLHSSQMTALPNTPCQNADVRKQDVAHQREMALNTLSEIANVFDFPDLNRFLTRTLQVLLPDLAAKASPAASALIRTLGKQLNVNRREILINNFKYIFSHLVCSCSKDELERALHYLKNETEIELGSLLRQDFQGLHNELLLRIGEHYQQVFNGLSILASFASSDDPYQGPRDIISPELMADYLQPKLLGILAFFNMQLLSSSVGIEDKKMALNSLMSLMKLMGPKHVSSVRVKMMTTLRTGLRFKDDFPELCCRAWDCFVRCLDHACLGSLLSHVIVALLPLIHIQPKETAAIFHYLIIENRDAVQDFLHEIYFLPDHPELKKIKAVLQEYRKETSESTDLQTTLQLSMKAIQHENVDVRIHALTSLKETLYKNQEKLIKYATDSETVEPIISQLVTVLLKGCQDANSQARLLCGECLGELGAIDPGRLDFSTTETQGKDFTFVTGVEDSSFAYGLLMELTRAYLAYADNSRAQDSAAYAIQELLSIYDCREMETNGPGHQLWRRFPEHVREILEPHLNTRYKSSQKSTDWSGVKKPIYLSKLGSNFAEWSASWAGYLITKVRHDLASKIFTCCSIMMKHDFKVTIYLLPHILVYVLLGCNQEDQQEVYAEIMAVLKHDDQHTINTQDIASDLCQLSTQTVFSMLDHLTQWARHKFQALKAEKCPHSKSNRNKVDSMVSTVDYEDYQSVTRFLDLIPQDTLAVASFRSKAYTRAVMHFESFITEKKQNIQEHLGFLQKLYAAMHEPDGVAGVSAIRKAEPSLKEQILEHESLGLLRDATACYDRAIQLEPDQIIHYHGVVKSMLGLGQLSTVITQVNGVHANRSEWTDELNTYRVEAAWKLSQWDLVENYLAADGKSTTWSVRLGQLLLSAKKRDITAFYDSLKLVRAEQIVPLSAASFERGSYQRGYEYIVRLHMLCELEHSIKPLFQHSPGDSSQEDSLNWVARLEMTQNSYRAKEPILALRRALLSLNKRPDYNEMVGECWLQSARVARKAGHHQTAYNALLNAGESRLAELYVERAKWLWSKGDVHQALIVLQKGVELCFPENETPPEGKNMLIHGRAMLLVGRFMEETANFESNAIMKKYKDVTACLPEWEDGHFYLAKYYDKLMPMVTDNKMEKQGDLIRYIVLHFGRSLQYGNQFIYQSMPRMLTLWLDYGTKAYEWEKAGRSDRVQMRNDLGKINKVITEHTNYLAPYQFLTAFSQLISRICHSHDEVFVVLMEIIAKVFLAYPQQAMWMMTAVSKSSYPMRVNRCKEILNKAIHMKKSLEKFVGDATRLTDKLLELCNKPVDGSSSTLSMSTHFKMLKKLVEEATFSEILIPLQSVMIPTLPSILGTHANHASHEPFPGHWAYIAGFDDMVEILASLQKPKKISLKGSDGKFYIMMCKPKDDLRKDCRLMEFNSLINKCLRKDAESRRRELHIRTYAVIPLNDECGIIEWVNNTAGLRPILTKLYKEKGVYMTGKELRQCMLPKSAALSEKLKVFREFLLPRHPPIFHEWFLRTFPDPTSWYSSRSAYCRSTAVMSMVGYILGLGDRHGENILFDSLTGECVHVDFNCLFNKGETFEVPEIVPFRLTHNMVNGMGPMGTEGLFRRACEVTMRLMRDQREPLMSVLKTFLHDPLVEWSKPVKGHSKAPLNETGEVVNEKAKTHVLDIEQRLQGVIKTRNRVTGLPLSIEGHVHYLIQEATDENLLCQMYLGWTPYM
Details: not given
The protocol:
Example 76A: ATR Inhibition Assay
Compounds were screened for their ability to inhibit ATR kinase using a radioactive-phosphate incorporation assay. Assays were carried out in a mixture of 50 mM Tris/HCl (pH 7.5), 10 mM MgCl2 and 1 mM DTT.
Assays were carried out at 25° C. in the presence of 5 nM full-length ATR. An assay stock buffer solution was prepared containing all of the reagents listed above, with the exception of ATP and the test compound of interest. […] The plate was pre-incubated for 10 minutes at 25° C. and the reaction initiated by addition of 15 μL [γ-33P]ATP (final concentration 10 μM).
The reaction was stopped after […] by the addition of 30 μL, 0.1M phosphoric acid containing 2 mM ATP. A multiscreen phosphocellulose filter 96-well plate (Millipore, Cat no. MAPHN0B50) was pretreated with 100 μL, 0.2M phosphoric acid prior to the addition of 45 μL of the stopped assay mixture. […] After drying, 100 μL Optiphase ‘SuperMix’ liquid scintillation cocktail (Perkin Elmer) was added to the well prior to scintillation counting (1450 Microbeta Liquid Scintillation Counter, Wallac).
After removing mean background values for all of the data points, Ki(app) data were calculated from non-linear regression analysis of the initial rate data using the Prism software package (GraphPad Prism version 3.0cx for Macintosh, GraphPad Software, San Diego, Calif., USA).
Consider `Nc1ncc(-c2cccc(C(=O)NC3CCC(O)CC3)c2)nc1C(=O)Nc1ccccc1` (stereo not shown) [Compound I-57, 3-amino-6-(3-(4-hydroxycyclohexylcarbamoyl)phenyl)-N-phenylpyrazine-2-carboxamide], for which the negative logarithm of the Ki (pKi) was 5.30 to 7.00.
The same measure, in the same setting: under `Nc1ncc(-c2ccc(C(=O)N3CCCNCC3)c3ccccc23)nc1-c1nnc(-c2ccccc2)o1` [IA-48] stands 7.00 to 8.00; under `CN(C)C1CCN(C(=O)c2cccc(-c3cnc(N)c(C(=O)Nc4ccccc4)n3)c2)C1` (stereo not shown) [Compound I-55, 3-amino-6-(3-(3-(dimethylamino)pyrrolidine-1-carbonyl)phenyl)-N-phenylpyrazine-2-carboxamide], 5.30 to 7.00.
In the case of `CN(C)C1CCN(C(=O)c2ccc(-c3cnc(N)c(C(=O)Nc4ccccc4)n3)cc2)C1` (stereo not shown) [Compound I-76, 3-amino-6-(4-(3-(dimethylamino)pyrrolidine-1-carbonyl)phenyl)-N-phenylpyrazine-2-carboxamide], the pKi is 7.00 to 8.00.
As for `CC(C)(C)CCN1CCCN(C(=O)c2ccc(-c3cnc(N)c(-c4nnc(-c5ccccc5)o4)n3)cc2)CC1` [IA-27], the pKi was 7.00 to 8.00.
Consider `CC(NC(=O)OC(C)(C)C)c1cccc(-c2nnc(-c3nc(-c4ccc(S(=O)(=O)C(C)C)cc4)cnc3N)o2)c1` (stereo not shown) [IA-154, tert-butyl N-[1-[3-[5-[3-amino-6-(4-isopropylsulfonylphenyl)pyrazin-2-yl]-1,3,4-oxadiazol-2-yl]phenyl]ethyl]carbamate], for which the negative-log Ki (pKi) was no less than 8.00.
On to `Nc1ncc(-c2ccc(C(=O)N3CCCNCC3)cc2)nc1-c1noc(-c2ccccc2)n1` [IA-2], for which the negative logarithm of the Ki (pKi) was 7.00 to 8.00.

The same assay, now with this note: ATR Inhibition Ki values; 5 nM full-length ATR, 10 μM ATP.
With `CNCc1ccc(-c2nnc(-c3nc(-c4ccc(S(=O)(=O)C(C)CCOC)cc4)cnc3N)o2)c(F)c1` (stereo not shown) [IA-332, 3-[5-[2-fluoro-4-(methylaminomethyl)phenyl]-1,3,4-oxadiazol-2-yl]-5-[4-(3-methoxy-1-methyl-propyl)sulfonylphenyl]pyrazin-2-amine], the negative logarithm of the Ki (pKi) was no less than 8.00.
The same measure, in the same setting: under `CS(=O)(=O)c1ccc(-c2cnc(N)c(-c3nnc(-c4ccccc4)o3)n2)cc1` [IA-89, 5-(4-methylsulfonylphenyl)-3-(5-phenyl-1,3,4-oxadiazol-2-yl)pyrazin-2-amine] stands no less than 8.00.
Still for that read-out and setting: next, `CCc1cccc(NC(=O)c2nc(-c3ccc(S(C)(=O)=O)cc3)cnc2N)n1` [VII-4]: 7.00 to 8.00; `C[S+]([O-])c1ccc(-c2cnc(N)c(-c3nnc(-c4ccccc4)o3)n2)cc1` (stereo not shown) [IA-274, 5-(4-methylsulfinylphenyl)-3-(5-phenyl-1,3,4-oxadiazol-2-yl)pyrazin-2-amine]: no less than 8.00.
With `Cc1cccc(NC(=O)c2nc(-c3ccc(S(C)(=O)=O)cc3)cnc2N)n1` [VII-5], the pKi was 7.00 to 8.00.
On to `CNCc1ccc(-c2nnc(-c3nc(-c4ccc(S(=O)(=O)C(C)C)c(OC(F)(F)F)c4)cnc3N)o2)cc1` [IA-290, 5-[4-isopropylsulfonyl-3-(trifluoromethoxy)phenyl]-3-[5-[4-(methylaminomethyl)phenyl]-1,3,4-oxadiazol-2-yl]pyrazin-2-amine], for which the negative-log Ki (pKi) was no less than 8.00.
